Like-named read-outs stand apart in the source and are kept apart here.
How the values were obtained:
5-HT1A receptor = target: T1, 5-HT1A receptor (Homo sapiens, UniProt P08908); experiment: 5-HT1A receptor radioligand competition assay (SPA, [3H]8-hydroxy-DPAT); assay type: binding; conditions: 0.5 nM hot 8-hydroxy-DPAT; membranes containing 5-HT1A
T1 construct: purchased Perkin Elmer 6110501400UA
T1 sequence (P08908 1-422): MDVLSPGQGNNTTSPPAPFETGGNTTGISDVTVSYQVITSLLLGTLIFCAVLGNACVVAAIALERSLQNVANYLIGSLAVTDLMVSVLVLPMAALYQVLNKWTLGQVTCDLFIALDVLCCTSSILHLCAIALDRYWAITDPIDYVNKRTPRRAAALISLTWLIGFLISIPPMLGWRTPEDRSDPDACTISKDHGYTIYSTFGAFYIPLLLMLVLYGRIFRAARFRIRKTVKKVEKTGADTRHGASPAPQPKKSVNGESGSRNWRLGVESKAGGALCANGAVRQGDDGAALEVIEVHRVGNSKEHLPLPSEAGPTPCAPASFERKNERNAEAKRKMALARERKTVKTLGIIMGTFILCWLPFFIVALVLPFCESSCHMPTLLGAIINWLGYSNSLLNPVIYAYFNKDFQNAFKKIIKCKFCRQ
Description: 5-HT1A receptor. […] After incubation, the samples were read on a MicroBeta 2 Microplate Counter (perkinelmer.com). Non-specific binding was carried out in the presence of 100 μM of metergoline (M3668-500MG, Sigma-Aldrich). Equilibrium binding constant for 8-hydroxy-DPAT (KD) was determined from a saturation binding curve using one-site saturation binding analysis from GraphPad PRISM software (Version 9.2.0). Test compound was dissolved to 100 mM in dimethylsulfoxide (DMSO), and dilutions were carried out in assay buffer. […] Ki values were calculated from the competition displacement data using the competitive binding analysis from GraphPad PRISM software. […] Conversely, blank preparations lacking any drug (simply termed ‘DMSO’ samples) were used as negative controls, in addition to those containing tryptophan which is not known to bind the 5-HT1A receptor.

[1] = target: T2, human serotonin transporter (SERT) (Homo sapiens, UniProt P31645); experiment: biochemical; assay type: binding; conditions: 1 nM imipramine; membranes containing human SERT; read-out: SERT, Ki
T2 construct: purchased PerkinElmer RBHSTM400UA
Description: A commonly applied SERT binding assay involves competition binding assays employing radiolabelled ligands. […] Radioactive binding assays were carried out using the Scintillation Proximity Assay (SPA). For saturation binding assay, mixtures of 9 μg of membrane containing human SERT was pre-coupled to 1 mg of SPA beads at room temperature in a tube rotator for 1 hour in binding buffer (50 mM Tris-HCl pH7.4, 120 mM NaCl, 5 mM KCl, 1 mM ascorbic acid, 10 μM pargyline HCl). […] After incubation, the samples are read on a MicroBeta 2 Microplate Counter. Non-specific binding was carried out in the presence of 200 μM of clomipramine hydrochloride (C7291-1G, Sigma). Equilibrium binding constant for imipramine (KD) was determined from saturation binding curve using one-site saturation binding analysis from GraphPad PRISM software (Version 9.2.0). All test compounds were dissolved to 100 mM in DMSO and dilutions were carried out in assay buffer. […] Ki values were calculated from the competition displacement data using the competitive binding analysis from GraphPad PRISM software. […] Vehicle (DMSO) without drug was used as a negative control.

[2] = Mouse plasma pharmacokinetics (PK) survey; assay type: in vivo; conditions: for AUC: male, C57BL6, mouse, read-out: AUCt0-tlast; for AUC / Cmax: ip; for Cmax: mouse
Description: The purpose of the study was to gain insight into the pharmacokinetic (PK) behaviour of drugs in rodents. In some contexts, drug exposure and other PK parameters may be linked to the onset and/or degree of drug efficacy. Toward the goal of assessing PK behaviour, objectives included the collection of plasma from male mice at various times after (1) a single ‘low’ IP (intraperitoneal) dose (4 mg/kg), and (2) a single ‘high’ IP dose (10 mg/kg) of drug for pharmacokinetic monitoring. The experiment was designed to enable the determination of key parameters (e.g., Cmax, AUC) and was conducted in partnership with Inotiv (Boulder, Colorado; www.inotiv.com; Studies 3533-2302132 and 3533-2302538).
The study which took part in two phases (No. 3533-2302132 and 3533-2302538) was conducted by CRO Inotiv (Boulder, CO) and was performed in accordance with the test facility standard operation procedures (SOPs), the World Health Organization Quality Practices in Basic Biomedical Research guidelines, and in compliance with all US state and federal regulations, including USDA Animal Welfare Act 9 CFR Parts 1-3. Federal Register 39129, Jul. 22, 1993. All mice were male, belonging to stain C57BL6 (supplier Envigo). Upon arrival at the facility, the mice were 6 weeks old and were acclimated 7 days prior to injection with food and water ad libitum (3 animals/cage).
Three cohorts of mice were included (n=6 per cohort): (1) control (vehicle treatment), (2) 4 mg/kg compound (XV), and (3) 10 mg/kg compound (XV). On day 0 of the study, animals were randomized into cohorts based on body weight. Dosing (i.p. dose route) was performed on Day 1. Sampling of plasma was performed under anesthesia (inhaled isoflurane) on 3 of 6 animals per cohort at 6 time points (15 min 30 min, 1 h, 2 h, 4 h, and 6 h post-dose) followed by sacrifice at 8 h post-dose, ex-sanguination and final plasma collection. Whole blood (100 μL) was collected for plasma preparation using K2EDTA on ice (centrifugation within 5 min of collection), for a final plasma volume of 50 μL. Samples were stored at −80° C. until analysis.
Bioanalytical analysis of plasma was carried out using standard LC-MS/MS procedures. Prior to analysis of plasma, drug-specific quantification metrics (e.g., standard curve, LOD, Rt) were pre-established using authentic standard (>95%). Calculated concentrations (ng/mL) of analyte were used to determine PK parameters (Cmax, AUC) within the limits of detection (LOD).

[3] = plasma, 4 mg/kg, male C57BL6 mice, plasma, 4 mg/kg i.p.
[4] = plasma, 10 mg/kg, male C57BL6 mice, plasma, 10 mg/kg i.p.
[5] = male C57BL6 mice, plasma, 4 mg/kg i.p.
[6] = male C57BL6 mice, plasma, 10 mg/kg i.p.

T2 sequence (P31645 whole entry): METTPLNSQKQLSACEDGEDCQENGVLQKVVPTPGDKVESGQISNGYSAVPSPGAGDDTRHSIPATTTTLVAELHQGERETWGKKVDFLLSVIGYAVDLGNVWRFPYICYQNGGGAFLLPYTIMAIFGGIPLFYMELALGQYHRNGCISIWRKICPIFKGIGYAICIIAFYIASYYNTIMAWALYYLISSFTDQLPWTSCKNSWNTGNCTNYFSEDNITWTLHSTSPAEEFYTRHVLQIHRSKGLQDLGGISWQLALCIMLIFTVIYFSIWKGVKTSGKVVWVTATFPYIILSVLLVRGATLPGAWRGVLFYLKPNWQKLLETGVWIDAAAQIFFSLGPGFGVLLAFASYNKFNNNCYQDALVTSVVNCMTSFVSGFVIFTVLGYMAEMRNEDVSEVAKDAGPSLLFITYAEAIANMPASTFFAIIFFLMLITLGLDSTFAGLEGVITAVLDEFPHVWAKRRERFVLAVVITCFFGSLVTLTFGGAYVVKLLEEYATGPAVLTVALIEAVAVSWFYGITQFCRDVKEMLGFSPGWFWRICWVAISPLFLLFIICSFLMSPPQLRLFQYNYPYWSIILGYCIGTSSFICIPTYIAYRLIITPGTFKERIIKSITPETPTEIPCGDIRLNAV

SMILES: CN(C)CCc1c[nH]c2cc(N3CCCC3)cc(F)c12 [Compound (XVIII)]
- Ki (5-HT1A receptor): 18.1 µM
- Ki [1]: 39.2 µM
- AUC [2, 3]: 19.6 ± 0.7 ng·h/mL
- AUC [2, 4]: 76.4 ± 11.5 ng·h/mL
- Cmax [2, 5]: 8.8 ± 1.2 ng/mL
- Cmax [2, 6]: 87.5 ± 8.5 ng/mL

SMILES: CN(C)CCc1c[nH]c2cc(N3CCC3)ccc12 [Compound (XII)]
- Ki (5-HT1A receptor): 20.8 µM
- Ki [1]: 1.68 µM
- AUC [2, 3]: 39.7 ± 3 ng·h/mL
- AUC [2, 4]: 145 ± 5.3 ng·h/mL
- Cmax [2, 5]: 92.8 ± 17.2 ng/mL
- Cmax [2, 6]: 302 ± 33.7 ng/mL

SMILES: CN(C)CCc1c[nH]c2cc(F)cc(N3CCOCC3)c12 [Compound (XV)]
- Ki (5-HT1A receptor): 1.83 µM
- Ki [1]: 9.13 µM
- AUC [2, 3]: 241 ± 71.6 ng·h/mL
- AUC [2, 4]: 590 ± 30.9 ng·h/mL
- detectability in plasma ([2]; most mice, eight hours post-administration, i.p.): still detectable
- Cmax [2, 5]: 101 ± 4.9 ng/mL
- Cmax [2, 6]: 459 ± 16.4 ng/mL

SMILES: CC(C)N(C)CCc1c[nH]c2cc(N3CCOCC3)c(F)cc12 [Compound (XVII)]
- AUCt0-tlast ([2]; male C57BL6 mice, plasma, 4 mg/kg i.p., 4 mg/kg): 27.2 ± 1.6 ng·h/mL
- AUC [2, 3]: 24.2 ± 1.6 ng·h/mL
- AUC [2, 4]: 164 ± 7.2 ng·h/mL
- Cmax [2, 5]: 62.1 ± 3.9 ng/mL
- Cmax [2, 6]: 384 ± 14.2 ng/mL
